According to US8575091B1, “Amylin analogues and pharmaceutical compositions thereof” (Novo Nordisk A/S, priority 2012, dated 2013):
Numbered stars: 1 amine (or outer) side, 2 acyl side, 3 side chain; on linkers, the order of the positions; unused ones are H or OH. Bridge positions count the residues as written; N and C are the ends. Side chains are listed from the residue outwards. Peptide text beside a SMILES is read from it. * marks the point of attachment. C20 diacid = O=C(O)CCCCCCCCCCCCCCCCCCC(=O)*; γGlu = O=C(O)[C@H](CCC(=O)[*:2])N[*:1]; AEEA = NCCOCCOCC(=O)O

Experiments:
[1] = target: T1, human amylin receptor (amylin 3(a) receptor: human calcitonin receptor + RAMP-3) (Homo sapiens, UniProt O60896+P30988); test: Assay (II)a functional assay, human amylin receptor (CRE luciferase, BHK cells); type: cell-based; conditions: functional assay, human amylin receptor; read-out: hAmylin-R funct. EC50
T1 construct: expressed in transfected cells
T1 sequence (P30988 25-474): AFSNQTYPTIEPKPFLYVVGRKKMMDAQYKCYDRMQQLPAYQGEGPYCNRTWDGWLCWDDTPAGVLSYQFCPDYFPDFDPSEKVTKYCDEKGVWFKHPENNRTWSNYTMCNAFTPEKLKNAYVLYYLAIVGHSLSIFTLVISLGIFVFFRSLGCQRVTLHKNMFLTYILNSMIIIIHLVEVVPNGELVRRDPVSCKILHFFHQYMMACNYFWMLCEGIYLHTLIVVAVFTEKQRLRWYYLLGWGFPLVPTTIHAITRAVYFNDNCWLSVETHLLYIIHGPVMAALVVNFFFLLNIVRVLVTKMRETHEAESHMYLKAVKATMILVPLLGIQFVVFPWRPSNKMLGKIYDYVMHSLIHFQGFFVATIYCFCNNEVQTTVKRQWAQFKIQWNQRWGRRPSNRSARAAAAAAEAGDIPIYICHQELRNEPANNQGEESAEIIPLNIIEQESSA
T1 sequence (O60896 24-148 partner): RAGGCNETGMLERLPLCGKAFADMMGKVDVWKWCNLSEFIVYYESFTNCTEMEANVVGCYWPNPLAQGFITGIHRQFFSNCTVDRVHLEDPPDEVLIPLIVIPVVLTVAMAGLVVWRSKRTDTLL

[2] = target: T2, human calcitonin receptor (Homo sapiens, UniProt P30988); test: Assay (II)a functional assay, human calcitonin receptor (CRE luciferase, BHK cells);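 also: luminescence from a CRE-driven luciferase reporter, read by single photon counting after cells were exposed to test samples for 3 h at 37 °C under 5% CO2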; type: cell-based; conditions: read-out: hCTR funct. EC50
T2 construct: expressed in transfected cells
T2 sequence (P30988 25-474): T1 sequence (P30988 25-474)

human amylin receptor = target: T3, human amylin receptor (Homo sapiens, UniProt O60896+P30988); test: Assay (V) binding to the human amylin receptor (SPA, 125I-rat amylin); conditions: for IC50: human amylin receptor membranes, SPA, read-out: hAmylin-R bind IC50
T3 construct: expressed in transfected cells
T3 sequence (P30988 25-474): T1 sequence (P30988 25-474)
T3 sequence (O60896 24-148 partner): T1 sequence (O60896 24-148 partner)
Procedure, shortened: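 SPA competition binding on membranes from Amylin 3(a)/CRE-luc cells, 35 ng/μL membranes with 0.05 mg/well beads. Buffer 50 mM Hepes pH 7.4, 1 mM CaCl2, 5 mM MgCl2, 0.1% OA, 0.02% Tween20. IC50 from one-site competition fit as affinity measure.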

[3] = target: T2, human calcitonin receptor; test: Assay (VII) binding to the human calcitonin receptor (SPA, 125I-Calcitonin); conditions: read-out: hCTR bind IC50;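 also: cell membranes coupled to SPA beads, competitive displacement read by scintillation counting, IC50 derived from a one-site competition fit as a measure of receptor affinity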

SMILES	EC50 [1]	EC50 [2]	IC50 (human amylin receptor)	IC50 [3]	Ratio hCT/hAmylin binding (human amylin receptor; Table 7b, human calcitonin receptor binding IC50 divided by human amylin receptor binding IC50)	Ratio hCT/hAmylin binding (human amylin receptor; Table 7c, human calcitonin receptor binding IC50 divided by human amylin receptor binding IC50)	Ratio hCT/hAmylin binding (human amylin receptor; human binding ratio, included for comparison)
CC[C@H](C)[C@H](NC(=O)[C@H](C)NC(=O)CNC(=O)[C@H](Cc1ccccc1)NC(=O)[C@H](CC(N)=O)NC(=O)[C@@H]1CCCN1C(=O)[C@H](CO)NC(=O)[C@H](CO)NC(=O)[C@H](Cc1c[nH]cn1)NC(=O)[C@H](CCCNC(=N)N)NC(=O)[C@H](CC(C)C)NC(=O)[C@H](Cc1ccccc1)NC(=O)[C@H](CC(N)=O)NC(=O)[C@H](C)NC(=O)[C@H](CC(C)C)NC(=O)[C@H](CCCNC(=N)N)NC(=O)[C@H](CCC(N)=O)NC(=O)[C@@H](NC(=O)[C@H](C)NC(=O)[C@@H]1CSSC[C@H](NC(=O)[C@@H](N)CCCCNC(=O)CC[C@H](NC(=O)CCCCCCCCCCCCCCCCC(=O)O)C(=O)O)C(=O)N[C@@H](CC(N)=O)C(=O)N[C@@H]([C@@H](C)O)C(=O)N[C@@H](C)C(=O)N[C@@H]([C@@H](C)O)C(=O)N1)[C@@H](C)O)C(=O)N1CCC[C@H]1C(=O)N[C@@H](CO)C(=O)N[C@@H](CO)C(=O)N[C@H](C(=O)N[C@@H](CC(N)=O)C(=O)N[C@H](C(=O)NCC(=O)N[C@@H](Cc1c[nH]cn1)C(=O)N[C@@H](CC(N)=O)C(=O)N[C@H](C(=O)N[C@@H](Cc1ccc(O)cc1)C(N)=O)[C@@H](C)O)C(C)C)[C@@H](C)O [Example 113]	0.096 nM	5.85 nM	0.382 nM	22.7 nM	–	–	–
CC[C@H](C)[C@H](NC(=O)[C@H](C)NC(=O)CNC(=O)[C@H](Cc1ccccc1)NC(=O)[C@H](CC(N)=O)NC(=O)[C@@H]1CCCN1C(=O)[C@H](CO)NC(=O)[C@H](CO)NC(=O)[C@H](Cc1c[nH]cn1)NC(=O)[C@H](CCCNC(=N)N)NC(=O)[C@H](CC(C)C)NC(=O)[C@H](Cc1ccccc1)NC(=O)[C@H](CC(=O)O)NC(=O)[C@H](C)NC(=O)[C@H](CC(C)C)NC(=O)[C@H](CCCNC(=N)N)NC(=O)[C@H](CCC(N)=O)NC(=O)[C@@H](NC(=O)[C@H](C)NC(=O)[C@@H]1CSSC[C@H](NC(=O)[C@@H](N)CCCCNC(=O)CC[C@H](NC(=O)CC[C@H](NC(=O)CCCCCCCCCCCCCCCCCCC(=O)O)C(=O)O)C(=O)O)C(=O)N[C@@H](CC(N)=O)C(=O)N[C@@H]([C@@H](C)O)C(=O)N[C@@H](C)C(=O)N[C@@H]([C@@H](C)O)C(=O)N1)[C@@H](C)O)C(=O)N1CCC[C@H]1C(=O)N[C@@H](CO)C(=O)N[C@@H](CO)C(=O)N[C@H](C(=O)N[C@@H](CC(N)=O)C(=O)N[C@H](C(=O)NCC(=O)N1CCC[C@H]1C(=O)N[C@@H](CCCNC(=N)N)C(=O)N[C@H](C(=O)N[C@@H](Cc1ccc(O)cc1)C(N)=O)[C@@H](C)O)C(C)C)[C@@H](C)O [Example 130] (H-K([γGlu-γGlu-C20 diacid])CNTATCATQRLADFLRHSSPNFGAIPSSTNVGPRTY-NH2; disulfide 2-7)	0.162 nM	7.28 nM	0.453 nM	127 nM	280.0	280.0	280.0
CC[C@H](C)[C@H](NC(=O)[C@H](C)NC(=O)CNC(=O)[C@H](Cc1ccccc1)NC(=O)[C@H](CC(N)=O)NC(=O)[C@@H]1CCCN1C(=O)[C@H](CO)NC(=O)[C@H](CO)NC(=O)[C@H](Cc1c[nH]cn1)NC(=O)[C@H](CCCNC(=N)N)NC(=O)[C@H](CC(C)C)NC(=O)[C@H](Cc1ccccc1)NC(=O)[C@H](CC(N)=O)NC(=O)[C@H](C)NC(=O)[C@H](CC(C)C)NC(=O)[C@H](CCCNC(=N)N)NC(=O)[C@H](CCC(N)=O)NC(=O)[C@@H](NC(=O)[C@H](C)NC(=O)[C@@H]1CSSC[C@H](NC(=O)[C@@H](N)CCCCNC(=O)COCCOCCNC(=O)COCCOCCNC(=O)CC[C@H](NC(=O)CCCCCCCCCCCCCCCCCCC(=O)O)C(=O)O)C(=O)N[C@@H](CC(N)=O)C(=O)N[C@@H]([C@@H](C)O)C(=O)N[C@@H](C)C(=O)N[C@@H]([C@@H](C)O)C(=O)N1)[C@@H](C)O)C(=O)N1CCC[C@H]1C(=O)N[C@@H](CO)C(=O)N[C@@H](CO)C(=O)N[C@H](C(=O)N[C@@H](CC(N)=O)C(=O)N[C@H](C(=O)NCC(=O)N1CCC[C@H]1C(=O)N[C@@H](CC(N)=O)C(=O)N[C@H](C(=O)N[C@@H](Cc1ccc(O)cc1)C(N)=O)[C@@H](C)O)C(C)C)[C@@H](C)O [Example 98]	0.084 nM	1.63 nM	0.091 nM	6.74 nM	–	–	–
CC[C@H](C)[C@H](NC(=O)[C@H](C)NC(=O)CNC(=O)[C@H](Cc1ccccc1)NC(=O)[C@H](CC(N)=O)NC(=O)[C@@H]1CCCN1C(=O)[C@H](CO)NC(=O)[C@H](CO)NC(=O)[C@H](Cc1c[nH]cn1)NC(=O)[C@H](CCCNC(=N)N)NC(=O)[C@H](CC(C)C)NC(=O)[C@H](Cc1ccccc1)NC(=O)[C@H](CC(N)=O)NC(=O)[C@H](C)NC(=O)[C@H](CC(C)C)NC(=O)[C@H](CCCNC(=N)N)NC(=O)[C@H](CCC(N)=O)NC(=O)[C@@H](NC(=O)[C@H](C)NC(=O)[C@@H]1CSSC[C@H](NC(=O)[C@@H](N)CCCCNC(=O)COCCOCCNC(=O)CCCCCCCCCCCCCCCCCCC(=O)O)C(=O)N[C@@H](CC(N)=O)C(=O)N[C@@H]([C@@H](C)O)C(=O)N[C@@H](C)C(=O)N[C@@H]([C@@H](C)O)C(=O)N1)[C@@H](C)O)C(=O)N1CCC[C@H]1C(=O)N[C@@H](CO)C(=O)N[C@@H](CO)C(=O)N[C@H](C(=O)N[C@@H](CC(N)=O)C(=O)N[C@H](C(=O)NCC(=O)N[C@@H](Cc1c[nH]cn1)C(=O)N[C@@H](CC(N)=O)C(=O)N[C@H](C(=O)N[C@@H](Cc1ccc(O)cc1)C(N)=O)[C@@H](C)O)C(C)C)[C@@H](C)O [Example 91]	0.04 nM	1.48 nM	0.119 nM	12 nM	–	–	–
CC[C@H](C)[C@H](NC(=O)[C@H](C)NC(=O)CNC(=O)[C@H](Cc1ccccc1)NC(=O)[C@H](CC(N)=O)NC(=O)[C@@H]1CCCN1C(=O)[C@H](CO)NC(=O)[C@H](CO)NC(=O)[C@H](Cc1c[nH]cn1)NC(=O)[C@H](CCCNC(=N)N)NC(=O)[C@H](CC(C)C)NC(=O)[C@H](Cc1ccccc1)NC(=O)[C@H](Cc1c[nH]cn1)NC(=O)[C@H](C)NC(=O)[C@H](CC(C)C)NC(=O)[C@H](CCCNC(=N)N)NC(=O)[C@H](CCC(N)=O)NC(=O)[C@@H](NC(=O)[C@H](C)NC(=O)[C@@H]1CSSC[C@H](NC(=O)[C@@H](N)CCCCNC(=O)COCCOCCNC(=O)CC[C@H](NC(=O)CCCCCCCCCCCCCCCCCCC(=O)O)C(=O)O)C(=O)N[C@@H](CC(N)=O)C(=O)N[C@@H]([C@@H](C)O)C(=O)N[C@@H](C)C(=O)N[C@@H]([C@@H](C)O)C(=O)N1)[C@@H](C)O)C(=O)N1CCC[C@H]1C(=O)N[C@@H](CO)C(=O)N[C@@H](CO)C(=O)N[C@H](C(=O)N1CCC[C@H]1C(=O)N[C@H](C(=O)NCC(=O)N[C@@H](CO)C(=O)N[C@@H](CC(N)=O)C(=O)N[C@H](C(=O)N[C@@H](Cc1ccc(O)cc1)C(N)=O)[C@@H](C)O)C(C)C)[C@@H](C)O [Example 61] (H-K([AEEA-γGlu-C20 diacid])CNTATCATQRLAHFLRHSSPNFGAIPSSTPVGSNTY-NH2; disulfide 2-7)	0.051 nM	0.554 nM	0.122 nM	8.11 nM	–	–	–
CC[C@H](C)[C@H](NC(=O)[C@H](C)NC(=O)CNC(=O)[C@H](Cc1ccccc1)NC(=O)[C@H](CC(N)=O)NC(=O)[C@@H]1CCCN1C(=O)[C@H](CO)NC(=O)[C@H](CO)NC(=O)[C@H](Cc1c[nH]cn1)NC(=O)[C@H](CCCNC(=N)N)NC(=O)[C@H](CC(C)C)NC(=O)[C@H](Cc1ccccc1)NC(=O)[C@H](CC(N)=O)NC(=O)[C@H](C)NC(=O)[C@H](CC(C)C)NC(=O)[C@H](CCCNC(=N)N)NC(=O)[C@H](CCC(N)=O)NC(=O)[C@@H](NC(=O)[C@H](C)NC(=O)[C@@H]1CSSC[C@H](NC(=O)[C@H](CCCCN)NC(=O)CC[C@H](NC(=O)CCCCCCCCCCCCCCCCCCC(=O)O)C(=O)O)C(=O)N[C@@H](CC(N)=O)C(=O)N[C@@H]([C@@H](C)O)C(=O)N[C@@H](C)C(=O)N[C@@H]([C@@H](C)O)C(=O)N1)[C@@H](C)O)C(=O)N1CCC[C@H]1C(=O)N[C@@H](CO)C(=O)N[C@@H](CO)C(=O)N[C@H](C(=O)N[C@@H](CC(N)=O)C(=O)N[C@H](C(=O)NCC(=O)N[C@@H](Cc1c[nH]cn1)C(=O)N[C@@H](CC(N)=O)C(=O)N[C@H](C(=O)N[C@@H](Cc1ccc(O)cc1)C(N)=O)[C@@H](C)O)C(C)C)[C@@H](C)O [Example 40]	0.164 nM	2.68 nM	0.549 nM	17.1 nM	–	–	–
